# Experimental data as given in patent US10160762B2, “6-alkyl dihydropyrazolopyrimidinone compounds as PDE2 inhibitors” (Merck Sharp & Dohme Corp., priority 2015, dated 2018).
# Like-named read-outs stand apart in the source and are kept apart here.
# Biological target: T1, human PDE2A1 (Homo sapiens, UniProt O00408)
# T1 construct: GST; purchased BPS Bioscience (San Diego, Calif.) 60020; host or cells: insect cells
# Assay: IMAP FP PDE assay, human PDE2A1
# Format: biochemical
# Experimental: Selectivity for PDE2, as compared to other PDE families, was assessed using the IMAP® technology. Human PDE10A2 enzyme was prepared from cytosolic fractions of transiently transfected HEK cells. All other PDE's were GST Tag human enzyme expressed in insect cells and were obtained from BPS Bioscience (San Diego, Calif.): PDE1A (Cat#60010), human PDE2A1 (Cat#60020), PDE3A (Cat#60030), PDE4A1A (Cat#60040), PDE5A1 (Cat#60050), PDE6C (Cat#60060), PDE7A (Cat#60070), PDE8A1 (Cat#60080), PDE9A2 (Cat#60090), PDE11A4 (Cat#60110).
# Assays for PDE 1 through 11 were performed in parallel at room temperature in 384-well microtiter plates with an incubation volume of 20.2 μL. Solutions of test compounds were prepared in DMSO and serially diluted with DMSO to yield 30 μL of each of ten solutions differing by 3-fold in concentration, at 32 serial dilutions per plate. […] A Labcyte POD 810 (Labcyte, Sunnyvale, Calif.) was used to dispense 200 nL from each well of the titration plate to make eleven copies of the assay plate for each titration, one copy for each PDE enzyme. A solution of each enzyme (dilution from aliquots, sufficient to produce 20% substrate conversion) and a separate solution of FAM-labeled cAMP or FAM-labeled cGMP from Molecular Devices (Sunnyvale, Calif., product # R7506 or cGMP#R7508), at a final concentration of 50 nM were made in the assay buffer (10 mM Tris HCl, pH 7.2, 10 mM MgCl2, 0.05% NaN3 0.01% Tween-20, and 1 mM DTT). Note that the substrate for PDE2 is 50 nM FAM cAMP containing 1000 nM of cGMP. The enzyme and the substrate were then added to the assay plates in two consecutive additions of 10 μL and then shaken to mix. The reaction was allowed to proceed at room temperature for 60 minutes. A binding solution was then made from the kit components, comprised of 80% Solution A, 20% Solution B and binding reagent at a volume of 1/600 the total binding solution. The enzymatic reaction was stopped by addition of 60 μL of the binding solution to each well of the assay plate. The plates were sealed and shaken for 10 seconds. The plates were incubated at room temperature for one hour, then the parallel and perpendicular fluorescence was measured using a Tecan Genios Pro plate reader (Tecan, Switzerland). The apparent inhibition constants for the compounds against all 11 PDE's was determined from the parallel and perpendicular fluorescent readings as described for PDE10 FP assay using the following apparent KM values for each enzyme and substrate combination: PDE1A (FAM cGMP) 70 nM, human PDE2A1 (FAM cAMP) 10,000 nM, PDE3A (FAM cAMP) 50 nM, PDE4A1A (FAM cAMP) 1500 nM, PDE5A1 (FAM cGMP) 400 nM, PDE6C (FAM cGMP) 700 nM, PDE7A (FAM cAMP) 150 nM, PDE8A1 (FAM cAMP) 50 nM, PDE9A2 (FAM cGMP) 60 nM, PDE10A2 (FAM cAMP) 150 nM, PDE11A4 (FAM cAMP) 1000 nM. The intrinsic PDE2 inhibitory activity of a compound which may be used in accordance with the present invention may be determined by these assays.
# [1] = Lab B, read-out: Human PDE2 Ki (nM) Lab B
# T1 sequence (O00408 1-920 isoform O00408-2): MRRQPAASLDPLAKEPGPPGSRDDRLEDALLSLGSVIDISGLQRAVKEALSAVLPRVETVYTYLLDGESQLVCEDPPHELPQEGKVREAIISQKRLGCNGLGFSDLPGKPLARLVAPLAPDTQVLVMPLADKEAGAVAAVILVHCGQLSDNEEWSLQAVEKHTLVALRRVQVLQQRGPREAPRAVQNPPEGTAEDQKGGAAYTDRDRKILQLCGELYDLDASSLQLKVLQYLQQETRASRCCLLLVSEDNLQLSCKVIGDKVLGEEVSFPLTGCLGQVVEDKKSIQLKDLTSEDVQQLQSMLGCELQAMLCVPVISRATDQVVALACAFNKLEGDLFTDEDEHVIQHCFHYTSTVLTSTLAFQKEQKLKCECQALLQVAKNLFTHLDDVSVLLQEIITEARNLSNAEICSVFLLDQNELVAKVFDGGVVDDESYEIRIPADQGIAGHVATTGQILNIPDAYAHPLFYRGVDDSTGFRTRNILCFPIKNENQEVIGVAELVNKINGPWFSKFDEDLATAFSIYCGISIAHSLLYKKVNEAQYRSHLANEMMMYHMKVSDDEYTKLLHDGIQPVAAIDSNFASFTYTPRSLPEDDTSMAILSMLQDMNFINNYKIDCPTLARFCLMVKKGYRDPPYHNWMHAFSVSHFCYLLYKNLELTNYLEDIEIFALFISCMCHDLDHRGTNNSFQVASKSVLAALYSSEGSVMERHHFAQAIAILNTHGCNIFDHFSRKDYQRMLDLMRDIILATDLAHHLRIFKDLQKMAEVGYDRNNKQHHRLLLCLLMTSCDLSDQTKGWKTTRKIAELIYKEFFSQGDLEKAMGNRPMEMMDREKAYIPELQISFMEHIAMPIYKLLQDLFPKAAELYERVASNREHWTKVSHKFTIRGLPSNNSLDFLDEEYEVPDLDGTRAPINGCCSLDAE
Compound,Ki [1],"Ki (Lab A, read-out: Human PDE2 Ki (nM) Lab A)"
"CC(c1ccc(C(F)(F)F)cc1)n1nc(C#N)c2c(=O)[nH]c(CC3CC3)nc21 (single isomer, unassigned) [Example 346]",34 nM,–
"Cc1nc2c(c(CO)nn2C(C)c2ccc(C(F)(F)F)nc2)c(=O)[nH]1 (single isomer, unassigned) [Example 130, (R)- or (S)-3-(Hydroxymethyl)-6-methyl-1-(1-(6-(trifluoromethyl)pyridin-3-yl)ethyl)-1H-pyrazolo[3,4-d]pyrimidin-4(5H)-one]",≥ 2960 nM,–
"CC(c1ccc(C(F)(F)F)cc1)n1nc(CO)c2c(=O)[nH]c(C3CCCO3)nc21 (single isomer, unassigned) [Example 313, (R,S)- or (S,R)- or (R,R)- or (S,S)-3-(Hydroxymethyl)-6-(tetrahydrofuran-2-yl)-1-(1-(4-(trifluoromethyl)-phenyl)ethyl)-1,5-dihydro-4H-pyrazolo[3,4-d]pyrimidin-4-one]",22 nM,–
"Cc1nc2c(c(CO)nn2C2(c3ccc(C(F)(F)F)cc3)COC2)c(=O)[nH]1 [Example 79, 3-(Hydroxymethyl)-6-methyl-1-(3-(4-(trifluoromethyl)phenyl)oxetan-3-yl)-1H-pyrazolo[3,4-d]pyrimidin-4(5H)-one]",23 nM,–
"Cc1nc2c(c(CO)nn2C(C)c2ccc(C(F)(F)C(F)(F)F)cc2)c(=O)[nH]1 (single isomer, unassigned) [Example 99, (S)- or (R)-3-(Hydroxymethyl)-6-methyl-1-(1-(4-(perfluoroethyl)phenyl)ethyl)-1H-pyrazolo[3,4-d]pyrimidin-4(5H)-one]",4.5 nM,–
"Cc1nc2c(c(CO)nn2C(C)c2ccc(C(F)(F)F)nn2)c(=O)[nH]1 (single isomer, unassigned) [Example 145, (R)- or (S)-3-(Hydroxymethyl)-6-methyl-1-(1-(6-(trifluoromethyl)pyridazin-3-yl)ethyl)-1H-pyrazolo[3,4-d]pyrimidin-4(5H)-one]",> 2960 nM,–
"CC(c1ccc(C(F)(F)F)cc1)n1nc(C(F)F)c2c(=O)[nH]c(C3CC3)nc21 (single isomer, unassigned) [Example 191, (R)- or (S)-6-Cyclopropyl-3-(difluoromethyl)-1-(1-(4-(trifluoromethyl)phenyl)ethyl)-1,5-dihydro-4H-pyrazolo[3,4-d]pyrimidin-4-one]",268 nM,–
"Cc1nc2c(c(CC3COC3)nn2C(C)c2ccc(C(F)(F)F)cc2)c(=O)[nH]1 (centres unmarked) [Example 289, 6-Methyl-3-(oxetan-3-ylmethyl)-1-(1-(4-(trifluoromethyl)phenyl)ethyl)-1H-pyrazolo[3,4-d]pyrimidin-4(5H)-one]",388 nM,–
"CCc1nc2c(c(CO)nn2C(C)c2ccc(C(F)(F)F)cc2)c(=O)[nH]1 (single isomer, unassigned) [Example 302, (S)- or (R)-6-Ethyl-3-(hydroxymethyl)-1-{1-[4-(trifluoromethyl)phenyl]ethyl}-1,5-dihydro-4H-pyrazolo[3,4-d]pyrimidin-4-one]",116 nM,–
"CC(c1ccc(C(F)(F)F)cc1)n1nc(CO)c2c(=O)[nH]c(C3CCCO3)nc21 (single isomer, unassigned) [Example 314, (S,R)- or (R,R)- or (S,S)- or (R,S)-3-(Hydroxymethyl)-6-(tetrahydrofuran-2-yl)-1-(1-(4-(trifluoromethyl)-phenyl)ethyl)-1,5-dihydro-4H-pyrazolo[3,4-d]pyrimidin-4-one]",38 nM,–
"Cc1nc2c(c(CO)nn2C(C)c2ccc(OC(F)F)cc2F)c(=O)[nH]1 (single isomer, unassigned) [Example 118, (R)- or (S)-1-(1-(4-(Difluoromethoxy)-2-fluorophenypethyl)-3-(hydroxymethyl)-6-methyl-1H-pyrazolo[3,4-d]pyrimidin-4(5H)-one]",323 nM,–
"Cc1nc2c(c(C(F)F)nn2C(C)c2ccc(C(F)(F)F)cc2Cl)c(=O)[nH]1 (single isomer, unassigned) [Example 184, (S)- or (R)-1-(1-(2-Chloro-4-(trifluoro-methyl)phenyl)-ethyl)-3-(difluoromethyl)-6-methyl-1H-pyrazolo[3,4-d]pyrimidin-4(5H)-one]",1.6 nM,–
"Cc1nc2c(c(CF)nn2C(c2ccc(C(F)(F)F)c(F)c2)C2CC2)c(=O)[nH]1 (single isomer, unassigned) [Example 227, (S)- or (R)-1-(Cyclopropyl(3-fluoro-4-(trifluoromethyl)phenyl)methyl)-3-(fluoromethyl)-6-methyl-1,5-dihydro-4H-pyrazolo[3,4-d]pyrimidin-4-one]",32 nM,–
"Cc1nc2c(c(C3CCCO3)nn2C(C)c2ccc(C(F)(F)F)cc2)c(=O)[nH]1 (single isomer, unassigned) [Example 71, (R, S)- or (R, R)- or (S, R)- or (S, S)-6-Methyl-3-(-tetrahydrofuran-2-yl)-1-(-l-(4-(trifluoromethyl)phenyl)ethyl)-1H-pyrazolo[3,4-d]pyrimidin-4(5H)-one]",111 nM,–
"Cc1nc2c(c(-c3ccco3)nn2C(C)c2ccc(C(F)(F)F)cc2)c(=O)[nH]1 (single isomer, unassigned) [Example 75, (S)- or (R)-3-(Furan-2-yl)-6-methyl-1-(1-(4-(trifluoromethyl)phenyl)ethyl)-1H-pyrazolo[3,4-d]pyrimidin-4(5H)-one]",203 nM,–
"COc1cccc(Cc2nc3c(c(C#N)nn3C(C)c3ccc(C(F)(F)F)cc3)c(=O)[nH]2)c1 (single isomer, unassigned) [Example 348]",4.7 nM,–
"CC(c1ccc(C(F)(F)F)cc1)n1nc(CO)c2c(=O)[nH]c(CC3CCCC3)nc21 (single isomer, unassigned) [Example 307, (R)- or (S)-6-(Cyclopentyl-methyl)-3-(hydroxymethyl)-1-(1-(4-(trifluoromethyl)-phenyl)ethyl)-1,5-dihydro-4H-pyrazolo[3,4-d]pyrimidin-4-one]",13 nM,–
"Cc1nc2c(c(CC(C)O)nn2C(C)c2ccc(C(F)(F)F)cc2)c(=O)[nH]1 (single isomer, unassigned) [Example 244]",386 nM,–
"COCc1nc2c(c(C(F)F)nn2C(C)c2ccc(C(F)(F)F)cc2)c(=O)[nH]1 (single isomer, unassigned) [Example 187, (R)- or (S)-3-(Difluoromethyl)-6-(methoxymethyl)-1-{1-[4-(trifluoromethyl)phenyl]ethyl}-1,5-dihydro-4H-pyrazolo-[3,4-d]pyrimidin-4-one]",231 nM,–
"Cc1nc2c(c(C3CCCO3)nn2C(C)c2ccc(C(F)(F)F)cc2)c(=O)[nH]1 (single isomer, unassigned) [Example 70, (R, R)- or (R, S) or (S, R) or (S, S)-6-Methyl-3-(-tetrahydrofuran-(trifluoromethyl)phenyl)ethyl)-1H-pyrazolo[3,4-d]pyrimidin-4(5H)-one]",159 nM,–
"COc1ccc(Cc2nc3c(c(CO)nn3C(C)c3ccc(C(F)(F)F)cc3)c(=O)[nH]2)cc1OC (racemic) [Example 297, 6-(3,4-Dimethoxybenzyl)-3-(hydroxymethyl)-1-{1-[4-(trifluoromethyl)phenyl]ethyl}-1,5-dihydro-4H-pyrazolo[3,4-d]pyrimidin-4-one]",–,0.72 nM
"Cc1nc2c(c(C(F)F)nn2C(C)c2ccc(S(F)(F)(F)(F)F)cc2)c(=O)[nH]1 (single isomer, unassigned) [Example 162]",1.8 nM,–
"Cc1nc2c(c(CO)nn2C(C)c2ccc(OC(F)F)c(F)c2)c(=O)[nH]1 (single isomer, unassigned) [Example 113, (S)- or (R)-1-(1-(4-(Difluoromethoxy)-3-fluorophenyl)ethyl)-3-(hydroxymethyl)-6-methyl-1H-pyrazolo[3,4-d]pyrimidin-4(5H)-one]",3 nM,–
